# Laboratory results taken from patent US20220387602A1, “BIFUNCTIONAL DEGRADERS AND THEIR METHODS OF USE” (NOVARTIS AG, priority 2019, published 2022).
# Experiments:
# BTK = target: T1, BTK (Homo sapiens, UniProt Q06187); experiment: BTK-GFP protein abundance flow cytometry assay in HEK293A; type: cell-based; conditions: 24 h; for BTK degradation Amax: % protein remaining at the concentration at which maximum degradation is seen, HEK293A; for DC50: concentration at which 50% maximal degradation was observed, HEK293A BTK-GFP sensor cells
# T1 construct: the BTK open reading frame (ORF) was first shuttled from a pcDNA-DEST40-BTK vector; expressed in transfected cells; host or cells: HEK293A (Invitrogen R70507), lentiviral transduction, blasticidin selection
# T1 sequence (Q06187 whole entry): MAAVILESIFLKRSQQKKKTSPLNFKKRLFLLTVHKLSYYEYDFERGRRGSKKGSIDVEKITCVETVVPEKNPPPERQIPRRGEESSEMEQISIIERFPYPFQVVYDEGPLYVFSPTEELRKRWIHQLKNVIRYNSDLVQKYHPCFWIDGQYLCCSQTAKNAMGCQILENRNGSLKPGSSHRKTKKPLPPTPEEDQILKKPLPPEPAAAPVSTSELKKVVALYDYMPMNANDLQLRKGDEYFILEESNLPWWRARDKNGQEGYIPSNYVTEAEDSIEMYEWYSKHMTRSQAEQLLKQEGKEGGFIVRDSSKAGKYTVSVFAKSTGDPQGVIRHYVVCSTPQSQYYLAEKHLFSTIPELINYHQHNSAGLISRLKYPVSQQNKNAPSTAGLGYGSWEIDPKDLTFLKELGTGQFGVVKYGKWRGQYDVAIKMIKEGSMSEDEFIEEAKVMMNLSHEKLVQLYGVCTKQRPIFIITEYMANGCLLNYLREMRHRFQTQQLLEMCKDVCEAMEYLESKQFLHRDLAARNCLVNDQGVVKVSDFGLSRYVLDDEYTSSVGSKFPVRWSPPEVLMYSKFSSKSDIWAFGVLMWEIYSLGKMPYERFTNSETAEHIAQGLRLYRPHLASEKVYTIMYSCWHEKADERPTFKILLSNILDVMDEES
# Experimental: Degradation of BTK, CSK, ABL2, EPHA4 and YES1 was measured in HEK293A cells (Invitrogen R70507) expressing either BTK-GFP and RFP, CSK-GFP and mCherry, GFP-ABL2 and mCherry, EPHA4-GFP and mCherry, or YES1-GFP and mCherry from a stably integrated bicistronic BTK-GFP-iresRFP, CSK-GFP-CHYSEL-mCherry, GFP-ABL2-CHYSEL-mCherry, EPHA4-GFP-CHYSEL-mCherry, or YES1-GFP-CHYSEL-mCherry construct, respectively. Reduction of the GFP signal measured by flow cytometry served as readout for BTK, CSK, ABL2, EPHA4 and YES1 degradation after degrader treatment.
# The mix was incubated for another 20 min at RT and then added on 1 mL of a freshly prepared suspension of HEK293FT cells in a well of a 6-well plate (concentration 1.2×10^6 cells/mL). 1 day after transfection, the medium was replaced with 1.5 mL of complete growth medium (DMEM high Glucose+10% FCS+1% L-Glutamine+1% NEAA+1% NaPyr.). 48 h post transfection supernatant containing viral transducing particles was collected and frozen at −80° C.
# Infection was performed with 90 μL of collected supernatant containing viral transducing particles in 1 mL medium including 8 µg/mL polybrene. 24 h post infection, stably transfected cells were selected with blasticidin at a concentration of 8 μg/mL referred to as stable HEK293A sensor cells.
# Stable HEK293A sensor cells were maintained in complete growth medium (DMEM high Glucose+10% FCS+1% L-Glutamine+1% NEAA+1% NaPyr.) with passaging performed twice per week. On Day 0, stable HEK293A sensor cells were seeded at 10,000 cells/well in a 96-well microtiter plate in 260 μL complete medium. On Day 1, cells were treated in duplicate with 10-point 1:3 dilution series of compound using the HP D300 Digital Dispenser (Tecan). DMSO concentrations were normalized across the plate to 0.1%. On Day 2, after 24 h of incubation at 37° C., treatment media was discarded, cells rinsed with 100 μL/well PBS and then detached using 40 μL trypsin/well for 5 min. Trypsin was neutralized with 100 μL/well PBS+20% FCS). Flow cytometry was performed on the samples using the BD FACS CANTO II (Becton Dickinson). Cell identification was then performed using forward (FSC) vs. side scatter (SSC) plots. Single cell discrimination is performed using SSC-Width (SSC-W) vs. SSC-Height (SSC-H) plots. Median GFP values for 5,000 single cells are used to determine BTK levels. Median GFP values from HEK293 Å-iresRFP are used as a background signal and thus defining 0% BTK signal. Median GFP values from DMSO treated HEK293 Å-BTK-GFP-iresRFP are used to define 100% BTK signal for subsequent DC50 curves (concentration at 50% BTK degradation). GFP and RFP are read in the channels called FITC and PE, respectively.
# Concentration response curves plotting relative reduction of the GFP signal (measured by flow cytometry) versus 10 compound concentrations (starting concentration 10 μM, 3 fold dilution steps) of the compounds allowed generation of DC50 values. Protein abundance measured for the second generation vectors having a chysel was done in close analogy to the above described method for measuring BTK abundance.
# Table 5 columns are defined as follows: DC50 refers to the concentration at which 50% maximal degradation was observed; deg Amax is the extent of degradation and the value refers to the % protein remaining at the concentration at which maximum degradation is seen.
# CRBN [1] = target: T2, CRBN (Homo sapiens, UniProt Q96SW2); experiment: CRBN displacement assay Format 2a (fluorescence polarization, 1536-well, Envision reader); type: binding; conditions: for CRBN Amax* (% at 50 μM) Format 2a: greatest effect as % displacement of the reference probe at the highest concentration tested (50 μM), given where AC50 >50 μM, 45 min
# T2 sequence (Q96SW2 whole entry): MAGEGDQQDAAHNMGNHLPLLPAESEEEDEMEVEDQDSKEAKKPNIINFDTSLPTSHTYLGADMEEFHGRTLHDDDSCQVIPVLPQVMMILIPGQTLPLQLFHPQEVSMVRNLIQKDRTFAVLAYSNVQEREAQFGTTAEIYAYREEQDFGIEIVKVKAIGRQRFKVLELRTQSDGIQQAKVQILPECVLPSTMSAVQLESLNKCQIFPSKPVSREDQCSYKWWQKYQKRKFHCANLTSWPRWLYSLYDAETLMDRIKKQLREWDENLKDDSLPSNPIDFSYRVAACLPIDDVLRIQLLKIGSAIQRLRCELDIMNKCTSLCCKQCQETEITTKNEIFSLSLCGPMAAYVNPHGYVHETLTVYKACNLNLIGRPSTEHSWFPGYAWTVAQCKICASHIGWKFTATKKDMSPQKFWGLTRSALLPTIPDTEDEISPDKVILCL
# Experimental: (§1) Compounds were tested in the following biochemical and cellular assays.
# (§2) BodipyFL conjugated lenalidomide compound HH was used as a fluorescent probe. […] Protein and substrate were diluted in assay buffer.
# The fluorescence of the Bodipy FL-based probe was excited at 480 nm and the emissions of the product were measured at 535 nm. The fluorescence in each well was excited by 30 flashes per measurement.
# For the determination of AC50 values, assays were performed at room temperature in 1536-well plates with a total assay volume of 6.03 μL per well. The test compounds were dissolved and diluted in 100% DMSO. For the assays, 30 nL of DMSO or compound solution were added per well, followed by the addition of 3 μL protein solution (80 nM protein in 1× assay buffer).
# The final assay concentration of the protein was nominally 40 nM. After 45 minutes of pre-incubation at room temperature, the competition for binding was started by the addition of 3 μL probe solution (10 nM probe dissolved in assay buffer). The final concentration of the probe in the assays was 5 nM. After the addition of the probe solution, the final DMSO concentration in the assay was 0.5% (v/v). The effect of the probe on the pre-established compound-protein complex equilibrium was determined after 45 minutes (t=45 min). The AC50 value was calculated from the plot of percentage of protein saturation versus the test compound concentration by a logistics fit according to: y=A^2+(A^1−A^2)/(1+(x/AC50)^p), where y is the %-saturation value at the test compound concentration, x. A^1 is the lowest saturation value, i.e., 0%, and A^2 the maximum saturation value, i.e. 100%. The exponent, p, is the Hill coefficient.
# CRBN [2] = target: T2, CRBN; experiment: CRBN displacement assay Format 1 (fluorescence polarization, BodipyFL-lenalidomide probe Compound HH); type: binding
# Experimental: as §1, §2
# All protein and probe containing solutions were handled in ‘Maxymum Recovery’ tubes (Axygen Scientific Inc., Union City, USA). […] For the plate measurements a PHERAstar reader (BMG Labtech, Offenburg, Germany) was used. The instrument was equipped with a specific optics module containing filters and dichoic mirrors for measuring the fluorescence polarization-type assay. With this module, the fluorescence of the Bodipy FL-based probe was excited at 485 nm and the emissions of the product were measured at 520 nm. The fluorescence in each well was excited by 10 flashes per measurement.
# For the determination of AC50 values, the assays were performed at room temperature in 384-well plates with a total assay volume of 10.1 μL per well. The test compound was dissolved in 90% (v/v) DMSO/water. For the assays, 100 nL of the 90% (v/v) DMSO/water solution or compound solution were added per well, followed by the addition of 5 μL protein solution (protein in 1× assay buffer).
# The final assay concentration of the protein was nominally 100 nM. After 45 minutes of pre-incubation at room temperature, the competition for binding was started by the addition of 5 μL probe solution (probe dissolved in assay buffer). The final concentration of the probes in the assays was 5 nM. After the addition of the probe solution, the final DMSO concentration in the assay was 0.9% (v/v). The effect of the probe on the pre-established compound-protein complex equilibrium was determined after 45 minutes (t=45 min). The AC50 value was calculated from the plot of percentage of protein saturation versus the test compound concentration by a logistics fit according to: y=A^2+(A^1−A^2)/(1+(x/AC50)^p), where y is the %-saturation value at the test compound concentration, x. A^1 is the lowest saturation value, i.e., 0%, and A^2 the maximum saturation value, i.e. 100%. The exponent, p, is the Hill coefficient.
AC50 (CRBN [1]),AC50 (CRBN [2]),Compound,further results
> 50 µM,61.2 µM,"O=C1CCN(Cc2cccc(CCO)c2)C(=O)N1 [ILB-7, 1-(3-(2-Hydroxyethyl)benzyl)dihydropyrimidine-2,4(1H,3H)-dione]",CRBN Amax* (% at 50 μM) Format 2a (CRBN [1]): 40%
> 50 µM,> 100 µM,"O=C1CCN(Cc2cc(C(=O)O)ccn2)C(=O)N1 [ILB-8, 2-((2,4-Dioxotetrahydropyrimidin-1(2H)-yl)methyl)isonicotinic acid]",CRBN Amax* (% at 50 μM) Format 2a (CRBN [1]): 21%
,13.5 µM,"O=C1CCN(c2c(F)cc(C#CCN3CCNCC3)cc2F)C(=O)N1 [ILB-45, 1-(2,6-difluoro-4-(3-(piperazin-1-yl)prop-1-yn-1-yl)phenyl)dihydropyrimidine-2,4(1H,3H)-dione]",
,2.8 µM,"O=C1CCN(c2cc(C(=O)N3CCC(OC4CCNCC4)CC3)ccc2Cl)C(=O)N1 [ILB-60, 1-(2-Chloro-5-(4-(piperidin-4-yloxy)piperidine-1-carbonyl)phenyl)dihydropyrimidine-2,4(1H,3H)-dione]",

# More lines, now with the values behind:
Compound,AC50 (CRBN [1]),AC50 (CRBN [2]),further results
"Cc1cc(OCCN2CCC(OC3CCN(Cc4ccc(-c5cc6c(-c7cc(F)cc(NC(=O)c8ccc(C(C)(C)O)cc8F)c7C)ncnc6[nH]5)cc4)CC3)CC2)ccc1N1CCC(=O)NC1=O [Compound 30, N-(3-(6-(4-((4-((1-(2-(4-(2,4-dioxotetrahydropyrimidin-1(2H)-yl)-3-methylphenoxy)ethyl)piperidin-4-yl)oxy)piperidin-1-yl)methyl)phenyl)-7H-pyrrolo[2,3-d]pyrimidin-4-yl)-5-fluoro-2-methylphenyl)-2-fluoro-4-(2-hydroxypropan-2-yl)benzamide]",,,BTK degradation Amax (BTK): 12.2%; DC50 (BTK): 0.0098 µM
"Cc1c(NC(=O)c2ccc(C(C)(C)O)cc2F)cc(F)cc1-c1ncnc2[nH]c(-c3ccc(CN4CCC5(CCN(CCOc6ccc(N7CCC(=O)NC7=O)c(Cl)c6)CC5)CC4)cc3)cc12 [Compound 31, N-(3-(6-(4-((9-(2-(3-chloro-4-(2,4-dioxotetrahydropyrimidin-1(2H)-yl)phenoxy)ethyl)-3,9-diazaspiro[5.5]undecan-3-yl)methyl)phenyl)-7H-pyrrolo[2,3-d]pyrimidin-4-yl)-5-fluoro-2-methylphenyl)-2-fluoro-4-(2-hydroxypropan-2-yl)benzamide]",,,BTK degradation Amax (BTK): 32.8%; DC50 (BTK): 0.0557 µM
"Cc1c(NC(=O)N2C[C@H](CC(C)C)[C@@H](O)C2)cc(F)cc1-c1ncnc2[nH]c(-c3ccc(CN4CCN(CCOc5ccc(N6CCC(=O)NC6=O)cc5)CC4)cc3)cc12 [Compound 32, (3R,4S)—N-(3-(6-(4-((4-(2-(4-(2,4-Dioxotetrahydropyrimidin-1(2H)-yl)phenoxy)ethyl)piperazin-1-yl)methyl)phenyl)-7H-pyrrolo[2,3-d]pyrimidin-4-yl)-5-fluoro-2-methylphenyl)-3-hydroxy-4-isobutylpyrrolidine-1-carboxamide]",,,BTK degradation Amax (BTK): 16.7%; DC50 (BTK): 0.0014 µM
"C=CCn1cccc(CN2CCC(=O)NC2=O)c1=O [ILB-1, 1-((1-allyl-2-oxo-1,2-dihydropyridin-3-yl)methyl)dihydropyrimidine-2,4(1H,3H)-dione]",4.79 µM,11 µM,
"O=C1CCN(Cc2cccn(CCO)c2=O)C(=O)N1 [ILB-3, 1-((1-(2-Hydroxyethyl)-2-oxo-1,2-dihydropyridin-3-yl)methyl)dihydropyrimidine-2,4(1H,3H)-dione]",4.17 µM,14.1 µM,
"O=C1CCN(Cc2cccn(CCN3CCC(OC4CCNCC4)CC3)c2=O)C(=O)N1 [ILB-6, 1-((2-oxo-1-(2-(4-(piperidin-4-yloxy)piperidin-1-yl)ethyl)-1,2-dihydropyridin-3-yl)methyl)dihydropyrimidine-2,4(1H,3H)-dione]",8.36 µM,19.8 µM,
"Cc1cc(F)c(C(=O)O)cc1N1CCC(=O)NC1=O [ILB-29, 5-(2,4-dioxotetrahydropyrimidin-1(2H)-yl)-2-fluoro-4-methylbenzoic acid]",,,"AC50 (CRBN [2]; concentration at which 50% of reference probe Compound HH is displaced, 100 nM protein, 5 nM probe, Table 4, read-out: CRBN AC50 [μM] Format 1): 0.95 µM"
